Experiment [1] relates to chicken embryo fibroblasts (CEF). As to the kind of experiment: EGFP pDNA transfection in primary chicken embryo fibroblasts. It counts as cell-based. The source says: FIG. 5 EGFP pDNA transfection efficacy (% GFP-positive cells) with amphiphile comprising 7.3(Leu-His) peptide and myristoleyl aldehyde (7.3(L-H) M) at different concentrations, compared with Lipofectamine 2000 (LF) and TransIT-LT1 Transfection Reagent (Mirus) in CEF (chicken embryo fibroblasts).
The amphiphile obtained by combining the peptide 7.3(Leu-His) with myristoleyl aldehyde (7.3(Leu-His) M) was used to deliver EGFP pDNA in primary chicken embryo fibroblasts (CEF, obtained from 9-10 day-old chicken embryos), which are non-immortal cells difficult to transfect. The transfection efficiency of amphiphile 7.3(Leu-His) M was compared to that of Lipofectamine® 2000 (LF) and TransIT-LT1 Transfection Reagent (Mirus).

For experiment [2], the system named is mice. As to the kind of experiment: In vivo FLuc mRNA delivery, i.m. injection, bioluminescence imaging. The method, then:
In vivo bioluminescence imaging (BLI) enables localization and quantification of expression following mRNA delivery in living animals.
The inventors evaluated the mRNA delivery efficiency of amphiphile by i.m. injections of an amphiphile-complexed FLuc mRNA in anesthetized mice using BLI. Amphiphilic molecule stock solutions were prepared in DMSO as described above and diluted in a suitable buffer, such as PBS, or phosphate buffer enriched with inorganic salts. The solutions of mRNA/amphiphile complexes were freshly prepared prior to in vivo experiments. Amphiphile solutions in a suitable buffer, such as PBS, or phosphate buffer enriched with inorganic salts, were mixed with mRNA solutions in a suitable buffer, such as PBS, or phosphate buffer enriched with inorganic salts (1:1 volume ratio, final amount of mRNA per mice=5 μg/mouse). The mixture was shaken for 30 min at room temperature before injection. For each mouse, 5 μg mRNA was complexed with the best candidates obtained from the in vitro experiments, 7.3(Leu-His) with myristoleyl aldehyde (7.3(Leu-His) M) (FIG. 7) or with palmitoleyl aldehyde (7.3(Leu-His) PA) (FIG. 8), and administered by i.m. injection in the right flank in 50 μL of a suitable buffer, such as PBS, or phosphate buffer enriched with inorganic salts. As control, 5 μg of naked mRNA was injected in three mice. Luciferase expression was evaluated over 48 h, starting at 1 h after the administration of mRNA complexes. […] In contrast, i.m. injections of naked mRNA afforded only low levels of luciferase expression, as measured by photon flux, in all mice. The experiment was performed in, at least, triplicates (3 mice per condition).
After obtaining the conditions providing the highest expression, a second round of i.m. delivery of FLuc mRNA was performed to further optimize the formulation of the complexes. […]

Experiment [3] concerns mice. The experiment is described as follows: In vivo FLuc mRNA delivery, i.v. injection, predilution formulation, BLI. Conditions: i.v. tail vein, organs after 24 h. The procedure:
FIG. 10A In vivo mRNA transfection. Representative bioluminescence images of animals and extracted organs following i.v. (intravenous) injection of FLuc mRNA/amphiphile complexes (0, 2.5 and 5 μM of 7.3(Leu-His) M) at different times (1 h, 4 h, 7 h and 24 h). 1.3 μg FLuc mRNA were used in all conditions. FIG. 10B Quantification of the organs' bioluminescence
In the case of i.v. administration (tail vein), luciferase expression was evaluated over 24 h, starting at 1 h after the administration of mRNA complexes. After that time, the specimens were sacrificed, and each organ was analysed individually using BLI for quantification of the expression. In this case, preferred conditions involved the injection of 50 μL of complex solution in a suitable buffer, such as PBS, or phosphate buffer enriched with inorganic salts, comprising 2.5 μM 7.3(Leu-His) M and 1.3 μg/mouse FLuc mRNA.

Starred links: 1 amine or outer side, 2 acyl side, 3 side chain; linkers in the order of their positions; H or OH if unused. Residues, ends and D or L forms follow the SMILES beside them. Groups on a side chain read outwards from the residue. *: point of attachment. Glutaryl = O=C(CCCC(=O)[*:2])[*:1]; X1 = CCCC/C=C\CCCCCCCC=NN*

With `CCCC/C=C\CCCCCCCC=NNC(=O)CCCC(=O)NCCCC[C@H](NC(=O)[C@H](CCCCNC(=O)CCCC(=O)NN=CCCCCCCC/C=C\CCCC)NC(=O)[C@H](CCCNC(=N)N)NC(=O)[C@H](Cc1c[nH]cn1)NC(=O)[C@H](CCCCNC(=O)CCCC(=O)NN=CCCCCCCC/C=C\CCCC)NC(=O)[C@H](CCCNC(=N)N)NC(C)=O)C(=O)N[C@@H](Cc1c[nH]cn1)C(N)=O` [7.3(Leu-His) M] (Ac-RK([Glutaryl-X1])HRK([Glutaryl-X1])K([Glutaryl-X1])H-NH2), in experiment [1], the “transfection efficiency relative to Lipofectamine 2000 (LF)” value is reported as “two times better” and the “transfection efficiency relative to TransIT-LT1 Transfection Reagent (Mirus)” value was “up to five times better”. Besides, the “conditions giving highest bioluminescence (FLuc expression)” value with mice [2] (2.5 μM amphiphile, 1.25, 3 or 5 μg/mouse FLuc mRNA) was “achieved with the complexes formed by 2.5 μM amphiphile and 5 μg/mouse of FLuc mRNA”. Besides, the “luciferase activity at the site of injection” value with mice [2] (5 μg FLuc mRNA) is on record as “High levels of luciferase activity”. Besides, the “time of peak luciferase expression” value in the experiment on mice [2] (5 μg FLuc mRNA, all concentrations tested (2.5, 5, 10 μM)) was found to be 7 h. Further, the biodistribution of bioluminescence entry in the experiment with mice [3] is recorded as “a preferred spleen biodistribution of the bioluminiscence was observed, followed by liver expression and, to a lesser extent, in the lungs”.

These data come from patent publication US20250304623A1, “PEPTIDES FOR INTRACELLULAR DELIVERY” (UNIVERSIDADE DE SANTIAGO DE COMPOSTELA, priority 2022, published 2025).
